Laboratory results published in patent US4220645A, “Chromone derivatives” (Thea (Therapeutique et Applications) SA, priority 1977, dated 1980).
Counter-ions that a name gives are not always drawn.

Key:
[1] = system: rhythm disorders induced by aconitine; test: Anti-arrhythmic activity in the guinea-pig (aconitine-induced arrhythmia); assay type: in vivo; conditions: for Average time for arrhythmia to appear, PES (polymorphic extrasystoles) / Average time for arrhythmia to appear, VT (ventricular tachycardia) / Average time for arrhythmia to appear, MTV (multifocal ventricular tachycardia) / Average time for arrhythmia to appear, VTB (ventricular tachycardia bursts): 6 guinea pigs; for Average time for arrhythmia to appear, PES (polymorphic extrasystoles): controls 27 ± 2; for Average time for arrhythmia to appear, VT (ventricular tachycardia): controls 30 ± 2; for Average time for arrhythmia to appear, MTV (multifocal ventricular tachycardia): controls 41 ± 2; for Average time for arrhythmia to appear, VTB (ventricular tachycardia bursts): controls 63 ± 4; for Delay of rhythm disorders induced by aconitine: I.V., guinea-pig, compared with amiodarone
Procedure: Anti-arrhythmic activity in the guinea-pig
Reference: Experimental evaluation of anti-arrhythmic drugs in the guinea-pig. GUIDICELLI, WITCHITZ, LARNO, BOISSIER, Biomedecine, 1973, 19, 308-313.
Male and female guinea-pigs were used, weighing from 600 to 800 g and anesthetised with urethane (1.25 g/kg/I.P.), tracheotomised and kept under artificial respiration. The electrocardiogram (D2) was recorded.
Arrhythmia was produced by perfusion at the rate of 0.5 ml/min of an aqueous solution of aconitine nitrate (0.15 mg/ml) in the jugular vein. Measurements were made of the time before the following rhythm disturbances appeared:
Polymorphic extrasystoles (PES),
Ventricular tachycardia (VT),
Multifocal ventricular tachycardia (MVT),
Ventricular tachycardia bursts (VTB),
that is a sequence of ventricular complexes of fixed frequency but with regular increasing and decreasing amplitude.
The following substances were used:
Amiodarone hydrochloride for comparison.
The substances were intravenously injected immediately before perfusion with aconitine had started.

[2] = system: tachycardia produced by isoprenaline stimulation of the sympathicoβ receptors of the heart; test: Sympathico-inhibiting activity in the conscious dog (isoprenaline tachycardia); assay type: in vivo, dog (mongrel); conditions: for Effect of isoprenaline after substance injected: 4 mg/kg I.V., 6 dogs, before injection 114 ± 9 (controls), (S) significant to P = 0,05
Procedure: Sympathico-inhibiting activity in the conscious dog
The dogs used were male and female mongrels weighing from 15 to 20 kg. The animals were not anaesthetised. Their electrocardiograms (D2) and heart rates were measured.
Short bouts of tachycardia, approx. 1 minute long, were produced by intravenously injecting a solution of isoprenaline in doses of 0.25 Y/kg. The injections were repeated every 15 minutes until the increase in heart rate had been reproduced in a satisfactory manner.
Next, the substance under study was intravenously injected and 3 additional measurements of the isoprenaline tachycardia were made 5 minutes, 20 minutes and 35 minutes after the product under study had been administered.

spontaneous heart rate = test: Bradycardiac activity on the conscious dog; assay type: in vivo, dog (mongrel); conditions: 4 mg/kg I.V.; for Average heart beat after substance injected: 9 dogs, before injection 132 ± 9, (S) significant to p = 0,05
Procedure: Bradycardiac activity on the conscious dog
The dogs used were male and female mongrels weighing from 15 to 20 kg. Their bypass electrocardiograms (D2) were recorded and their heart rate (FC) was measured with a cardiotachometer.
The animals were not used to tests and consequently their heart rate was relatively high, 130 beats per minute on average.
3 control measurements of the heart rate were made during the hour before intravenous injection of the substance under study, and 3 further measurements were made 5 minutes, 20 minutes and 35 minutes after administration.

[3] = Acute toxicity in the mouse; assay type: in vivo; conditions: female Swiss mice
Procedure: Acute toxicity in the mouse
The acute toxicity of compound No. 6 administered intravenously (I.V.) and orally (P.O.) was determined in female mice of the Swiss strain weighing from 25 to 27 g.
Compound No. 6 was administered in aqueous solution in a concentration of 0.4% intravenously and in a concentration of 1% and 4% orally.

## CCCCc1oc2ccccc2c1C(=O)c1cc(I)c(OCCN(CC)CC)c(I)c1 [Amiodarone (hydrochloride), Amiodarone hydrochloride, reference compound]
[1]; 4 mg/kg I.V.
  Average time for arrhythmia to appear, PES (polymorphic extrasystoles): 32 ± 3 s
  Average time for arrhythmia to appear, VT (ventricular tachycardia): 44 ± 6 s
  Average time for arrhythmia to appear, MTV (multifocal ventricular tachycardia): 59 ± 5 s
  Average time for arrhythmia to appear, VTB (ventricular tachycardia bursts): 94 ± 8 s

## CCCCN(CCCC)CCCOc1c(C)cc(C(=O)c2cc(=O)c3ccccc3o2)cc1C [Compound No. 1, 2-[4-(3-N,N-dibutylaminopropoxy) 3,5-dimethylbenzoyl] chromone hydrochloride]
[2]; 5 min, spread ±12
  Effect of isoprenaline after substance injected: 68 beats per minute
[2]; 20 min, spread ±10
  Effect of isoprenaline after substance injected: 89 beats per minute
[2]; 35 min, spread ±10
  Effect of isoprenaline after substance injected: 97 beats per minute
[2]; isoprenaline tachycardia, conscious dog
  Sympathico-inhibiting activity: can moderate tachycardia produced by isoprenaline stimulation
[1]; 2 mg/kg I.V.
  Average time for arrhythmia to appear, PES (polymorphic extrasystoles): 63 ± 4 s
  Average time for arrhythmia to appear, VT (ventricular tachycardia): 79 ± 9 s
  Average time for arrhythmia to appear, MTV (multifocal ventricular tachycardia): 94 ± 10 s
  Average time for arrhythmia to appear, VTB (ventricular tachycardia bursts): 139 ± 11 s
[1]
  Delay of rhythm disorders induced by aconitine: delay rhythm disorders induced by aconitine to a greater extent than the conventional reference compound, amiodarone
Spontaneous heart rate; conscious dog
  Effect on spontaneous heart rate: significantly lowers the spontaneous heart rate
Spontaneous heart rate; 5 min, spread ±10
  Average heart beat after substance injected: 114 beats/min
Spontaneous heart rate; 20 min, spread ±8
  Average heart beat after substance injected: 109 beats/min
Spontaneous heart rate; 35 min, spread ±8
  Average heart beat after substance injected: 107 beats/min

## CCCCN(CCCC)CCCOc1c(C)cc(C(=O)c2oc3ccccc3c(=O)c2C)cc1C [Compound No. 6, 2-[4-(3-N,N-dibutylaminopropoxy) 3,5-dimethylbenzoyl] 3-methyl chromone hydrochloride]
[3]; I.V., aqueous solution 0.4%
  Lethal dose: ~30 mg/kg
[3]; P.O., aqueous solution 1% and 4%
  Lethal dose: ~1200 mg/kg

## CCCCN(CCCC)CCOc1c(C)cc(C(=O)c2cc(=O)c3ccccc3o2)cc1C [Compound No. 7, 2-[4-(2-N,N-dibutylaminoethoxy) 3,5-dimethylbenzoyl] chromone hydrochloride]
[1]; 4 mg/kg I.V.
  Average time for arrhythmia to appear, PES (polymorphic extrasystoles): 36 ± 4 s
  Average time for arrhythmia to appear, VT (ventricular tachycardia): 55 ± 8 s
  Average time for arrhythmia to appear, MTV (multifocal ventricular tachycardia): 77 ± 9 s
  Average time for arrhythmia to appear, VTB (ventricular tachycardia bursts): 145 ± 10 s
[1]
  Delay of rhythm disorders induced by aconitine: delay rhythm disorders induced by aconitine to a greater extent than the conventional reference compound, amiodarone
